Experimental findings from US9346762B2, “Pyrazole derivatives and their use as LPAR5 antagonists” (SANOFI, priority 2012, dated 2016) are described below.

Each structure is given as a SMILES string.

Holding throughout (format): cell-based
Assay [1] has as its system murine microglia cell line BV-2 (LPA receptor LPAR5). The assay is described as follows: FLIPR assay, intracellular Ca2+ release in murine microglia cell line BV-2. As to conditions: Mus musculus; LPA-stimulated Ca2+ release, BV-2 cells, compound added 10 minutes prior to LPA. The text has this: (§1) B) Use of the Fluorometric Imaging Plate Reader (FLIPR) Assay for the Determination of Intracellular Ca^2+ Release in Human Mast Cell Line HMC-1 and the Murine Microglia cell line BV-2
(§2) The ability of the compounds of the formula Ito inhibit or bind the LPA receptor LPAR5 can be assessed by determining the intracellular Ca^2+ release in human or animal cells. For the analysis of activating potential of LPA and the inhibitory effects of compounds of the formula I two cell lines were used with high LPAR5 expression, the human mast cell line HMC-1 and the murine microglia cell line BV-2 (FIGS. 1 and 2). For the FLIPR assay using human mast cells in a 96-well-format, HMC-1 suspension cells from flask culture were harvested, resuspended and counted. 14×10^6 HMC-1 cells were transferred into a new 50 ml tube, centrifuged for 3 minutes at 540×g. The resulting cell pellet at the bottom of the tube was resuspended with 15 ml loading buffer (loading buffer contained HBSS buffer (pH 7.4), 0.1% BSA (bovine serum albumin), 2 μM FLUO-4 dye; HBSS buffer (pH 7.4) contained 1×HBSS, 20 mM HEPES, 0.01% Pluronic F-127, 2.5 mM Probenicid).
Cells in loading buffer were incubated for 45-60 minutes at 37° C. […] Results of the assay are expressed as % activation, and are calculated using maximum peak of activation (Amax). […]

The test system of assay [2] is human mast cell line HMC-1 (LPA receptor LPAR5). As to the kind of experiment: FLIPR assay, intracellular Ca2+ release in human mast cell line HMC-1. Conditions: HMC1, LPA-stimulated Ca2+ release, HMC-1 cells, compound added 10 minutes prior to LPA.
From the text: as §1, §2
Cells in loading buffer were incubated for 45-60 minutes at 37° C. After incubation cells were centrifuged for 3 minutes at 540×g and resuspended with 21 ml of HBSS buffer (pH 7.4). Each well of a poly-D-lysine coated 96-well-plate was filled with 150 μl cell solution, an equivalent of 100 000 cells/well. The 96-well-plate was centifuged for 2 minutes at 100×g (without brake) prior a recovery time of 30 minutes at 37° C. After this procedure cells were stimulated with LPA (in HBSS pH 7.4 and 0.1% BSA) to determine the EC50 of LPA in HMC-1 cells. For the determination of the inhibitory effect of compounds of the formula I, test compounds were added to the cells in the 96-well-plate 10 minutes prior the addition of LPA. Results of the assay are expressed as % activation, and are calculated using maximum peak of activation (Amax). The IC50 data of the above described FLIPR assay using human mast cell line HMC-1 for exemplary compounds of the present invention are shown in Table 2. Adherent BV-2 cells were seeded onto poly-D-lysine coated 96-well-plates (100000 cells/well) the day before performing the FLIPR assay. The density of the cells in the 96-well-plate at the day of the FLIPR assay should be 90%. After aspiration of the culture media, BV-2 cells were incubated for 30 minutes at 37° C. with loading buffer and recovered in 150 μl HBSS buffer for 30 minutes at 37° C. After this procedure cells were stimulated with LPA (in HBSS pH 7.4 and 0.1% BSA) to determine the EC50 of LPA in BV-2 cells. For the determination of the inhibitory effect of compounds of the formula I, test compounds were added to the cells in the 96-well-plate 10 minutes prior the addition of LPA. The IC50 data of the above described FLIPR assay using the murine microglia cell line BV-2 for exemplary compounds of the present invention are shown in Table 3.

For assay [3], the system named is washed human blood platelets (platelet LPA receptor LPAR5). The assay is described as follows: Aggregation assay for washed human blood platelets (LPA-induced). Conditions: reduction of maximal LPA-induced aggregation, 5 min preincubation at 37° C. As to the method:
A) Aggregation Assay for Washed Human Blood Platelets (Thrombocytes)
Whole blood was collected from healthy volunteers using 3×20 ml syringes containing each 1/10 volume of buffered citrate. The anticoagulated whole blood was transferred into 50 ml polypropylene conical tubes (30 ml per tube). The tubes were centrifuged for 10 minutes at 150×g at room temperature without using the centrifuge brake. This procedure results in a lower phase of cellular components and a supernatant (upper phase) of platelet rich plasma (PRP). The PRP phase was collected from each tube and pooled for each donor. To avoid carry over of cellular components following first centrifugation, approximately 5 ml of PRP was left in the tube. The platelet concentration was determined using a ABX Micros 60 counter. The PRP phase was transferred to a new 50 ml tube. After 10 minutes standing at room temperature, 1 μl PGI2 (1 mM in Tris-HCl/pH 8.8) and 180 μl ACD/A were added per ml PRP. The PRP was then transferred to new 10 ml tube and centrifuged for 10 minutes at 500×g. After centrifugation a cellular pellet is visible at the bottom of the tube. The supernatant was carefully discarded and the cellular pellet, consisting of human blood platelets was then dissolved in 10 ml buffer T (buffer T composition: 145 mM NaCl, 5 mM KCl, 0.1 mM MgCl2×6 H2O, 15 mM HEPES, 5.5 mM glucose, pH 7.4). Platelet concentration in this solution was determined and buffer T was added to obtain a final concentration of 3.5×10^5 platelets per ml.
After 10 minutes at room temperature, 1 μl PGI2 per ml platelet solution was added and distributed into new 10 ml tubes. After a centrifugation step, 10 minutes at 500×g, supernatant was discarded and the platelets were resuspended in buffer T to a final concentration of 3.5×10^5 platelets per ml buffer T. Before use, platelet-containing buffer equilibrated for 30 minutes at room temperature. The human platelet aggregation assay was performed in single use cuvettes using the Platelet Aggregation Profiler® (PAP-4 or -8E, BIO/DATA Corporation). For a single experiment, 320 μl of platelet solution were transferred into an assay cuvette, 20 μl of calcium citrate solution (10 mM in H2O) and 20 μl of fibrinogen solution (20 mg/ml H2O) were added. The aggregation assay was performed in the assay cuvette at 37° C. and with 1.200 rpm stirring. To determine the EC50, eight assay cuvettes were loaded as described above with different concentrations of LPA. Aggregation was measured over 6 minutes at 37° C. with 1200 rpm (revolutions per minute) stirring. Results of the assay are expressed as % activation, and are calculated using maximum aggregation (Tmax) or area under curve (AUC) of the absorbance over 6 minutes. The inhibitory effect (IC50) of the test compounds was determined as the reduction of the maximal aggregation. Test compound was added prior starting the experiment with an incubation time of the test compound of 5 minutes at 37° C. with 1200 rpm stirring. The IC50 data of the above described platelet aggregation assay using human washed platelets for exemplary compounds of the present invention are shown in Table 1.

Consider `Cc1c(COC(C)(C)C(=O)NCc2ccc(C(=O)O)cc2)nn(-c2ccc(Cl)cc2Cl)c1-c1ccc(Cl)cc1` [Example 9, 4-({2-[5-(4-Chloro-phenyl)-1-(2,4-dichloro-phenyl)-4-methyl-1H-pyrazol-3-ylmethoxy]-2-methyl-propionylamino}-methyl)-benzoic acid], for which the IC50 – broadly, the point on the concentration scale where inhibition reaches its midpoint – in assay [1] was 1800 nM; in assay [2], 1300 nM; in assay [3], 2900 nM.
